The values below come from BindingDB's records for patent US20240189287 (Bionanosim (Bns, 2024).

Each structure is given as a SMILES string.

The target of this test is Cannabinoid receptor 1 (Mus musculus, UniProt P47746). Put plainly: CB1 receptor binding assay. The text has this: Mouse brain membranes were used as the source material for CB1 receptors. […] Briefly.

By Ki is commonly meant the equilibrium dissociation constant of an inhibitor or competing ligand from its target.

Sequence of Cannabinoid receptor 1 (P47746 whole entry): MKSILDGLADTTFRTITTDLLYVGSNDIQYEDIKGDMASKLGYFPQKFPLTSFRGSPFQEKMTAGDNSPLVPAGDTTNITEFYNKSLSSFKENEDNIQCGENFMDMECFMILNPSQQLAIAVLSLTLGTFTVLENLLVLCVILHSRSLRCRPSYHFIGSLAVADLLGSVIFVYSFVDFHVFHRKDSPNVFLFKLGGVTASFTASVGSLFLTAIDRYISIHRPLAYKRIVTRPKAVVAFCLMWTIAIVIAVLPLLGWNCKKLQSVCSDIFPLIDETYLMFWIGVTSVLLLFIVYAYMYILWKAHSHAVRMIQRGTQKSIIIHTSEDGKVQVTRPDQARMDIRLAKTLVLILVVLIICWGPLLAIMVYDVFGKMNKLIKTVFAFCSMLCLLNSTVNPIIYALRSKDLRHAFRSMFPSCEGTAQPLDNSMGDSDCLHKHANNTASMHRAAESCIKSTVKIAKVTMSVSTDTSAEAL

With `O=S(=O)(NC1CCCOc2c1nn(-c1ccccc1Cl)c2-c1ccc(Cl)cc1)c1ccc(Cl)cc1` (stereo unspecified) [US20240189287, Compound BNS808], the Ki is 0.6 nM.
